The source of these data is ChEMBL document CHEMBL3727355, “Chemokine receptor activity regulator” (2014).

For the assay, the target named is T1, C-C chemokine receptor type 10 (Homo sapiens) (UniProt P46092).
T1 sequence (whole entry): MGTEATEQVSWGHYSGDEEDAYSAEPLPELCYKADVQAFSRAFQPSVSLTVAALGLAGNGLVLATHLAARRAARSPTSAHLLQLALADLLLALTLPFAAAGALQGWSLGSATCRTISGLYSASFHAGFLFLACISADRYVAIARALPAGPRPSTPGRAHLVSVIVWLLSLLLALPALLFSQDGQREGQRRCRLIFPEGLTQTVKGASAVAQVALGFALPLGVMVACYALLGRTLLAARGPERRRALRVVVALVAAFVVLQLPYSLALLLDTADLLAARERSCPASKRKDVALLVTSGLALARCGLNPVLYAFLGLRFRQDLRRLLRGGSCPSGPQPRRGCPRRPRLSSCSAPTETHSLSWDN
In words: Antagonist activity against human CCR10 expressed in human KJMGER8 cells assessed as inhibition of human recombinant CTACK-induced increase in intracellular calcium level at 100 nmol/L pre-incubated for 30 mins before human recombinant CTACK stimulation for 5 mins by FLIPR assay. It is filed as functional, cell-based. (A change in cytosolic calcium serves as a functional read-out for many receptors and channels.)
In the case of `CC(=O)NS(=O)(=O)c1cnn2c(Nc3cc(Cl)ccc3F)c(C(=O)N3CCC(c4ccc(F)cc4)CC3)cnc12`, the inhibition is over 100%.
Take `CCNC(=O)NS(=O)(=O)c1cnn2c(Nc3ccc(F)cc3C)c(C(=O)N3CCC(c4ccccc4)CC3)cnc12`: the inhibition was 72.6%.
Regarding `CCNC(=O)NS(=O)(=O)c1cnn2c(Nc3ccc(C)cc3F)c(C(=O)N3CCC4(CC3)OCc3ccccc34)cnc12`, the inhibition is over 100%.
As to `O=C(NS(=O)(=O)c1cnn2c(NCc3ccccc3)c(C(=O)N3CCC(c4ccccc4)CC3)cnc12)C1CC1`, the inhibition came out at 89.4%.
To `CCC(=O)NS(=O)(=O)c1cnn2c(Nc3cc(Cl)ccc3Cl)c(C(=O)N3CCC4(CC3)OCc3ccccc34)cnc12` belongs over 100%; to `COC(=O)NS(=O)(=O)c1cnn2c(Nc3cc(C)ccc3C)c(C(=O)N3CCC(c4ccccc4)CC3)cnc12`, over 100%; to `Cc1cc(F)ccc1Nc1c(C(=O)N2CCC(c3ccccc3)CC2)cnc2c(S(=O)(=O)NC(=O)C3CC3)cnn12`, 93.4%.
To `CCNS(=O)(=O)c1cnn2c(Nc3cc(C)ccc3Cl)c(C(=O)N3CCC(c4ccc(F)cc4)CC3)cnc12` belongs 87.8%.
For the compound `CCNC(=O)NS(=O)(=O)c1cnn2c(Nc3ccc(Cl)c(Cl)c3)c(C(=O)N3CCC(c4ccc(F)cc4)CC3)cnc12`, the inhibition was over 100%.
Regarding `CONS(=O)(=O)c1cnn2c(Nc3cc(Cl)ccc3Cl)c(C(=O)N3CCC(c4ccc(F)cc4)CC3)cnc12`, the inhibition was over 100%.
For the compound `CCNC(=O)NS(=O)(=O)c1cnn2c(Nc3cc(C)c(F)cc3Cl)c(C(=O)N3CCC(c4ccc(F)cc4)CC3)cnc12`, the inhibition is over 100%.
As for `Cc1ccc(F)c(Nc2c(C(=O)N3CCC(c4ccc(F)cc4)CC3)cnc3c(S(=O)(=O)NC(=O)NC4CC4)cnn23)c1`, the inhibition is over 100%.
Regarding `COC(=O)NS(=O)(=O)c1cnn2c(Nc3ccccc3Cl)c(C(=O)N3CCC(c4ccccc4)CC3)cnc12`, the inhibition came to 99.6%.
With `CCNC(=S)NS(=O)(=O)c1cnn2c(Nc3ccc(F)cc3C)c(C(=O)N3CCC(c4ccccc4)CC3)cnc12`, the inhibition worked out at 81.8%.
`CCC(=O)NS(=O)(=O)c1cnn2c(Nc3ccc(F)cc3Cl)c(C(=O)N3CCC4(CC3)OCc3ccccc34)cnc12`: the inhibition was over 100%.
For the compound `CC(=O)NS(=O)(=O)c1cnn2c(Nc3cc(C)ccc3Cl)c(C(=O)N3CCC4(CC3)OCc3ccccc34)cnc12`, the inhibition is over 100%.
As to `Cc1ccc(Cl)c(Nc2c(C(=O)N3CCC4(CC3)OCc3ccccc34)cnc3c(S(=O)(=O)NC(=O)NCC(F)(F)F)cnn23)c1`, the inhibition was determined as 75.3%.
In the case of `CCC(=O)NS(=O)(=O)c1cnn2c(Nc3cc(C)ccc3Cl)c(C(=O)N3CCC(c4ccc(F)cc4)CC3)cnc12`, the inhibition was over 100%.
The value for `Cc1cc(Cl)ccc1Nc1c(C(=O)N2CCC3(CC2)OCc2ccccc23)cnc2c(S(=O)(=O)NC(=O)C3CC3)cnn12` was over 100%; that for `O=C(NS(=O)(=O)c1cnn2c(Nc3ccccc3Cl)c(C(=O)N3CCC(c4ccccc4)CC3)cnc12)C1CC1` was 98.9%.
With `O=C(NS(=O)(=O)c1cnn2c(Nc3cc(Cl)ccc3Cl)c(C(=O)N3CCC4(CC3)OCc3ccccc34)cnc12)C1CC1`, the inhibition is over 100%.
Take `CCNC(=O)NS(=O)(=O)c1cnn2c(Nc3cc(C)ccc3Cl)c(C(=O)N3CCC(c4ccc(F)cc4)CC3)cnc12`: the inhibition is over 100%.
Regarding `Cc1cc(F)ccc1Nc1c(C(=O)N2CCC(c3ccc(F)cc3)CC2)cnc2c(S(=O)(=O)NCC(F)(F)F)cnn12`, the inhibition was over 100%.
In the case of `CC1(C(=O)NS(=O)(=O)c2cnn3c(Nc4cc(Cl)ccc4Cl)c(C(=O)N4CCC(c5ccc(F)cc5)CC4)cnc23)COC1`, the inhibition is over 100%.
`O=C(c1cnc2c(S(=O)(=O)Nc3ncccn3)cnn2c1Nc1cc(Cl)ccc1Cl)N1CCC(c2ccc(F)cc2)CC1`: the inhibition was over 100%.
The value for `Cc1ccc(Cl)c(Nc2c(C(=O)N3CCC(c4ccc(F)cc4)CC3)cnc3c(S(=O)(=O)NC(=O)NC4CC4(F)F)cnn23)c1` (stereo not drawn) was over 100%; that for `Cc1cc(F)ccc1Nc1c(C(=O)N2CCC(c3ccc(F)cc3)CC2)cnc2c(S(=O)(=O)NC3CC3)cnn12` was over 100%; that for `CCNC(=O)NS(=O)(=O)c1cnn2c(Nc3cc(Cl)ccc3F)c(C(=O)N3CCC(c4ccc(F)cc4)CC3)cnc12` was over 100%.
`O=C(NS(=O)(=O)c1cnn2c(Nc3ccccc3Cl)c(C(=O)N3CCC(c4ccc(F)cc4)CC3)cnc12)C1CC1`: the inhibition is 80.6%.
In the case of `CC(=O)NS(=O)(=O)c1cnn2c(Nc3cc(F)ccc3F)c(C(=O)N3CCC(c4ccc(F)cc4)CC3)cnc12`, the inhibition was over 100%.
Consider `Cc1ccc(Cl)c(Nc2c(C(=O)N3CCC(c4ccc(F)cc4)CC3)cnc3c(S(=O)(=O)NC(N)=O)cnn23)c1`, for which the inhibition was over 100%.
In the case of `CCC(=O)NS(=O)(=O)c1cnn2c(Nc3cc(C)ccc3F)c(C(=O)N3CCC4(CC3)OCc3ccccc34)cnc12`, the inhibition is over 100%.
In the case of `CCC(=O)NS(=O)(=O)c1cnn2c(Nc3cc(F)ccc3F)c(C(=O)N3CCC(c4ccc(F)cc4)CC3)cnc12`, the inhibition was over 100%.
As for `CCN(CC)S(=O)(=O)c1cnn2c(Nc3ccc(F)cc3C)c(C(=O)N3CCC(c4ccccc4)CC3)cnc12`, the inhibition is over 100%.
As to `CCC(=O)NS(=O)(=O)c1cnn2c(Nc3ccc(C)cc3F)c(C(=O)N3CCC4(CC3)OCc3ccccc34)cnc12`, the inhibition is over 100%.
Take `COC(=O)NS(=O)(=O)c1cnn2c(Nc3ccc(F)cc3C)c(C(=O)N3CCC(c4ccccc4)CC3)cnc12`: the inhibition came to 90.7%.
With `CCC(=O)NS(=O)(=O)c1cnn2c(Nc3cc(C)ccc3Cl)c(C(=O)N3CCC4(CC3)OCc3ccccc34)cnc12`, the inhibition is over 100%.
To `CCNC(=O)NS(=O)(=O)c1cnn2c(Nc3ccc(Cl)cc3Cl)c(C(=O)N3CCC(c4ccc(F)cc4)CC3)cnc12` belongs 90.7%.
As for `CCNC(=O)NS(=O)(=O)c1cnn2c(Nc3ccc(Cl)cc3C)c(C(=O)N3CCC4(CC3)OCc3ccccc34)cnc12`, the inhibition was over 100%.
Take `Cc1cc(F)ccc1Nc1c(C(=O)N2CCC(c3ccccc3)CC2)cnc2c(S(=O)(=O)NC(=O)C(F)(F)F)cnn12`: the inhibition was over 100%.
As for `CC(=O)NS(=O)(=O)c1cnn2c(Nc3ccc(F)cc3C)c(C(=O)N3CCC(c4ccccc4)CC3)cnc12`, the inhibition was over 100%.
Take `CCNC(=O)NS(=O)(=O)c1cnn2c(Nc3cc(F)ccc3Cl)c(C(=O)N3CCC(c4ccc(F)cc4)CC3)cnc12`: the inhibition was over 100%.
With `CCNS(=O)(=O)c1cnn2c(Nc3ccc(F)cc3C)c(C(=O)N3CCC(c4ccc(F)cc4)CC3)cnc12`, the inhibition is over 100%.
Consider `CCNS(=O)(=O)c1cnn2c(Nc3ccc(F)cc3C)c(C(=O)N3CCC(c4ccccc4)CC3)cnc12`, for which the inhibition is over 100%.
`O=C(c1cnc2c(S(=O)(=O)Nc3cccnn3)cnn2c1Nc1cc(Cl)ccc1Cl)N1CCC(c2ccc(F)cc2)CC1`: the inhibition was over 100%.
As to `Cc1ccc(F)c(Nc2c(C(=O)N3CCC4(CC3)OCc3ccccc34)cnc3c(S(=O)(=O)NC(=O)NC4CC4(F)F)cnn23)c1` (stereo not drawn), the inhibition was over 100%.
In the case of `CCNC(=O)NS(=O)(=O)c1cnn2c(Nc3cc(C)ccc3Cl)c(C(=O)N3CCC4(CC3)OCc3ccccc34)cnc12`, the inhibition turned out to be 95.2%.
To `O=C(NC1CC1)NS(=O)(=O)c1cnn2c(Nc3ccc(F)cc3Cl)c(C(=O)N3CCC(c4ccc(F)cc4)CC3)cnc12` belongs over 100%; to `CNCC(=O)NS(=O)(=O)c1cnn2c(Nc3ccc(F)cc3C)c(C(=O)N3CCC(c4ccccc4)CC3)cnc12`, 58.8%; to `COCCNS(=O)(=O)c1cnn2c(Nc3ccccc3Cl)c(C(=O)N3CCC(c4ccc(F)cc4)CC3)cnc12`, 28.9%.
With `Cc1ccc(Cl)c(Nc2c(C(=O)N3CCC4(CC3)OCc3ccccc34)cnc3c(S(=O)(=O)NC(=O)NC4CCOCC4)cnn23)c1`, the inhibition came to 62.3%.
As for `CCONS(=O)(=O)c1cnn2c(Nc3cc(Cl)ccc3Cl)c(C(=O)N3CCC(c4ccc(F)cc4)CC3)cnc12`, the inhibition was over 100%.
With `O=CNS(=O)(=O)c1cnn2c(Nc3cc(Cl)ccc3Cl)c(C(=O)N3CCC(c4ccc(F)cc4)CC3)cnc12`, the inhibition was over 100%.
Consider `CCC(=O)NS(=O)(=O)c1cnn2c(Nc3ccc(Cl)cc3Cl)c(C(=O)N3CCC(c4ccc(F)cc4)CC3)cnc12`, for which the inhibition amounted to 97%.
The value for `CCC(=O)NS(=O)(=O)c1cnn2c(Nc3cc(C)ccc3Cl)c(C(=O)N3CC4(C3)CN(c3ccc(F)cc3)C4)cnc12` was 90.2%; that for `Cc1cc(F)ccc1Nc1c(C(=O)N2CCC(c3ccccc3)CC2)cnc2c(S(=O)(=O)NC(=O)Nc3ccccc3)cnn12` was 63.7%.
Regarding `CCNS(=O)(=O)c1cnn2c(Nc3cc(C)ccc3Cl)c(C(=O)N3CCC4(CC3)OCc3ccccc34)cnc12`, the inhibition worked out at 80.3%.
Turning to `CCNC(=O)NS(=O)(=O)c1cnn2c(Nc3ccc(F)cc3C)c(C(=O)N3CCC4(CC3)OCc3ccccc34)cnc12`, the inhibition turned out to be 92%.
The value for `COCC(=O)NS(=O)(=O)c1cnn2c(Nc3ccc(F)cc3C)c(C(=O)N3CCC(c4ccccc4)CC3)cnc12` was 94.2%; that for `CCC(=O)NS(=O)(=O)c1cnn2c(Nc3cc(C(F)(F)F)ccc3Cl)c(C(=O)N3CCC(c4ccc(F)cc4)CC3)cnc12` was over 100%.
Regarding `O=C(c1cnc2c(S(=O)(=O)Nc3nncs3)cnn2c1Nc1cc(Cl)ccc1Cl)N1CCC(c2ccc(F)cc2)CC1`, the inhibition was over 100%.
In the case of `CCC(=O)NS(=O)(=O)c1cnn2c(Nc3cc(C)c(F)cc3Cl)c(C(=O)N3CCC(c4ccc(F)cc4)CC3)cnc12`, the inhibition is over 100%.
On to `Cc1cc(F)ccc1Nc1c(C(=O)N2CCC(c3ccccc3)CC2)cnc2c(S(=O)(=O)NC(=O)N3CCOCC3)cnn12`, for which the inhibition came out at 85.9%.

What is called inhibition is the drop in the measured response relative to a control, in per cent.
